Assay results reported in US7598258B2, “Quinoline derivatives and quinazoline derivatives inhibiting autophosphorylation of macrophage colony stimulating factor receptor” (Kirin Beer Kabushiki Kaisha, priority 2002, dated 2009).

Biological target: T1, Human KDR (Homo sapiens, UniProt P35968)
T1 construct: expressed in transfected cells; host or cells: NIH3T3 cells (mouse fibroblasts)
Assay: Inhibition of KDR phosphorylation in human KDR-transfected NIH3T3 cells (ELISA);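 for Selection ratio (KDR phosphorylation IC50 / c-fms phosphorylation IC50): class 2 means ratio of 10 or more and class 3 means 50 or more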
Type: cell-based
Conditions: for Selection ratio (KDR phosphorylation IC50 / c-fms phosphorylation IC50): class 0-3; for IC50: human KDR-transfected NIH3T3 cells, VEGF 100 ng/ml, ELISA, read-out: KDR phosphorylation 50% inhibitory concentration (IC50)
Outline: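 NIH3T3 cells transfected with human KDR, in 0.1% FCS medium, treated with compound 1 hr at 37° C, then stimulated with VEGF 100 ng/ml for 2 min. Lysate KDR phosphorylation measured by anti-phosphotyrosine capture/anti-KDR ELISA (A450); IC50 from inhibition normalized between VEGF-stimulated and unstimulated wells.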

T1 sequence (P35968 20-1356): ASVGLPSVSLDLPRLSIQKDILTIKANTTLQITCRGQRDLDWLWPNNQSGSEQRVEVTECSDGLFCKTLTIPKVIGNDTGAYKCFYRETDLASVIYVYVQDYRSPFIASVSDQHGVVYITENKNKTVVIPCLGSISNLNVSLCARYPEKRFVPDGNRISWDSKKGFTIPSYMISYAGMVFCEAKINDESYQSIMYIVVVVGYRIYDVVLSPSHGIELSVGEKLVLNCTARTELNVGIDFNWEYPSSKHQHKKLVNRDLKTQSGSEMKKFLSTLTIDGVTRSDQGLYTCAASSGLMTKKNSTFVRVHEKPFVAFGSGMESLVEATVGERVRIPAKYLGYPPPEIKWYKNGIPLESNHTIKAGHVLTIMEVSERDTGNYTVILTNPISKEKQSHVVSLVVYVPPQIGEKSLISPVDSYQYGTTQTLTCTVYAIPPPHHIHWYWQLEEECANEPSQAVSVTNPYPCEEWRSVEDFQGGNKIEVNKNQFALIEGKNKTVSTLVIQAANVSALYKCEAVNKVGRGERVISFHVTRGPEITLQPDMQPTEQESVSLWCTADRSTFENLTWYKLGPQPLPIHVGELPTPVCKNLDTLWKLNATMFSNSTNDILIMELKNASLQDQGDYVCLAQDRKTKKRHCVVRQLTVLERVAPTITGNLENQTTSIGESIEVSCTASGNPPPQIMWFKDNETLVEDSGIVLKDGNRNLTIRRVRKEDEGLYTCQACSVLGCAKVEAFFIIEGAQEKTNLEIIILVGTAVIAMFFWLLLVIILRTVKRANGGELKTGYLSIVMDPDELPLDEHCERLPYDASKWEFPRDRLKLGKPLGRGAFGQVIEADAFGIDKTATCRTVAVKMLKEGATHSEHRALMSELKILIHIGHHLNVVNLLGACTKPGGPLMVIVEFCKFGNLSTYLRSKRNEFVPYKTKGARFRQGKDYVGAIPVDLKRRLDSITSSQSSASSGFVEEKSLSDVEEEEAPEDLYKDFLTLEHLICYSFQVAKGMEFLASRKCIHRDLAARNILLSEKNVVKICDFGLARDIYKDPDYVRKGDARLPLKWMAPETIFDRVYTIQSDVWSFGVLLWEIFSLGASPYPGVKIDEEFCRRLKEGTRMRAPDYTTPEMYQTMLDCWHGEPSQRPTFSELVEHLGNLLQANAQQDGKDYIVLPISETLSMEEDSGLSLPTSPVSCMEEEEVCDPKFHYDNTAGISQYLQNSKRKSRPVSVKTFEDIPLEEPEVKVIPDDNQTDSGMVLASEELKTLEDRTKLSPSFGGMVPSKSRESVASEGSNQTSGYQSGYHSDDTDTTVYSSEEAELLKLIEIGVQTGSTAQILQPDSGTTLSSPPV

Row | SMILES | IC50 | Selection ratio (KDR phosphorylation IC50 / c-fms phosphorylation IC50)
1 | COc1cc2nccc(Oc3ccc(NC(=O)N[C@@H](C)c4cccc(Br)c4)cc3)c2cc1OC [Example 46, N-[(1S)-1-(3-Bromophenyl)ethyl]-N′-{4-[(6,7-dimethoxy-4-quinolyl)oxy]phenyl}urea] | 507 nM | 3 (when the value was 50 or more)
2 | COc1cccc([C@@H](C)NC(=O)Nc2ccc(Oc3ccnc4cc(OC)c(OC)cc34)cc2)c1 [Example 50, N-{4-[(6,7-Dimethoxy-4-quinolyl)oxy]phenyl}-N′-[(1R)-1-(3-methoxyphenyl)ethyl]urea] | 28.3 nM | 0 (KDR phosphorylation 50% inhibitory concentration [μM]/c-fms phosphorylation 50% inhibitory concentration [μM] was less than 5)
3 | COc1cc2nccc(Oc3ccc(NC(=O)N[C@@H](C)c4ccc(C)cc4)cc3)c2cc1OC [Example 41, N-{4-[(6,7-Dimethoxy-4-quinolyl)oxy]phenyl}-N′-[(1S)-1-(4-methylphenyl)ethyl]urea] | 18.8 nM | 1 (when the value was 5 or more)
4 | COc1cc2nccc(Oc3ccc(NC(=O)N[C@H](C)c4ccc([N+](=O)[O-])cc4)cc3)c2cc1OC [Example 36, N-{4-[(6,7-Dimethoxy-4-quinolyl)oxy]phenyl}-N′-[(1R)-1-(4-nitrophenyl)ethyl]urea] | 134 nM | 0 (KDR phosphorylation 50% inhibitory concentration [μM]/c-fms phosphorylation 50% inhibitory concentration [μM] was less than 5)
5 | COc1cccc([C@H](C)NC(=O)Nc2ccc(Oc3ccnc4cc(OC)c(OC)cc34)cc2)c1 [Example 49, N-{4-[(6,7-Dimethoxy-4-quinolyl)oxy]phenyl}-N′-[(1S)-1-(3-methoxyphenyl)ethyl]urea] | 45.4 nM | 2 (when the value was 10 or more)
6 | COc1cc2nccc(Oc3ccc(NC(=O)N[C@@H](C)c4ccc(F)cc4)cc3)c2cc1OC [Example 2, N-{4-[(6,7-Dimethoxy-4-quinolyl)oxy]phenyl}-N′-[(1S)-1-(4-fluorophenyl)ethyl]urea] | 32.3 nM | 2 (when the value was 10 or more)
7 | COc1cc2nccc(Oc3ccc(NC(=O)N[C@@H](C)c4ccc(Cl)cc4)cc3)c2cc1OC [Example 47, N-[(1S)-1-(4-Chlorophenyl)ethyl]-N′-{4-[(6,7-dimethoxy-4-quinolyl)oxy]phenyl}urea] | 310 nM | 3 (when the value was 50 or more)
8 | COc1cc2nccc(Oc3ccc(NC(=O)N[C@@H](C)c4ccc([N+](=O)[O-])cc4)cc3)c2cc1OC [Example 35, N-{4-[(6,7-Dimethoxy-4-quinolyl)oxy]phenyl}-N′-[(1S)-1-(4-nitrophenyl)ethyl]urea] | 310 nM | 2 (when the value was 10 or more)

The next molecules have a lower IC50 than those just listed; values first:

Row | IC50 | SMILES | Selection ratio (KDR phosphorylation IC50 / c-fms phosphorylation IC50)
9 | 2.5 nM | COc1cc2nccc(Oc3ccc(NC(=O)N[C@H](C)c4cccc(Br)c4)cc3)c2cc1OC [Example 45, N-[(1R)-1-(3-Bromophenyl)ethyl]-N′-{4-[(6,7-dimethoxy-4-quinolyl)oxy]phenyl}urea] | 0 (KDR phosphorylation 50% inhibitory concentration [μM]/c-fms phosphorylation 50% inhibitory concentration [μM] was less than 5)
10 | < 1 nM | COc1cc2nccc(Oc3ccc(NC(=O)N[C@H](C)c4ccc(F)cc4)cc3)c2cc1OC [Example 3, N-{4-[(6,7-Dimethoxy-4-quinolyl)oxy]phenyl}-N′-[(1R)-1-(4-fluorophenyl)ethyl]urea] | 0 (KDR phosphorylation 50% inhibitory concentration [μM]/c-fms phosphorylation 50% inhibitory concentration [μM] was less than 5)
11 | 2.7 nM | COc1cc2nccc(Oc3ccc(NC(=O)N[C@H](C)c4ccc(Cl)cc4)cc3)c2cc1OC [Example 48, N-[(1R)-1-(4-Chlorophenyl)ethyl]-N′-{4-[(6,7-dimethoxy-4-quinolyl)oxy]phenyl}urea] | 0 (KDR phosphorylation 50% inhibitory concentration [μM]/c-fms phosphorylation 50% inhibitory concentration [μM] was less than 5)
12 | 16.6 nM | COc1cc2nccc(Oc3ccc(NC(=O)N[C@H](C)c4ccc(C)cc4)cc3)c2cc1OC [Example 42, N-{4-[(6,7-Dimethoxy-4-quinolyl)oxy]phenyl}-N′-[(1R)-1-(4-methylphenyl)ethyl]urea] | 0 (KDR phosphorylation 50% inhibitory concentration [μM]/c-fms phosphorylation 50% inhibitory concentration [μM] was less than 5)
